Reference: paper PMC7419507, “In vitro Cas9-assisted editing of modular polyketide synthase genes to produce desired natural product derivatives” (Nature Communications, 2020)
Values joined by “and” are separate entries in the source; they are usually repeats but may differ in a detail not shown here. Identical values can stand only once.

Key:
[1] = target: T1, FKBP12 and mTOR (Homo sapiens, UniProt P42345+P62942); assay: Fluoppi analysis: induction of FKBP12-mTOR complex formation in transfected HeLa cells; assay type: cell-based; conditions: for Foci intensity: raw data, one replicate per line
T1 construct: host or cells: HeLa cells
T1 sequence (P42345 2025-2114 limits assumed): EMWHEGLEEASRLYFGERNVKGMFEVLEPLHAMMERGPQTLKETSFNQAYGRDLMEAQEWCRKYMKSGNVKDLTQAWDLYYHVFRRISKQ
T1 sequence (P62942 whole entry): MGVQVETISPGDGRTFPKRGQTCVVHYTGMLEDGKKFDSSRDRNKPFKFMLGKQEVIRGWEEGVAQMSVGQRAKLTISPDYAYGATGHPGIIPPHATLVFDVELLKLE
Summary of the method: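 Complex formation read as fluorescent foci: foci intensity over total per-cell intensity, imaged (×20, 9 fields/well) after fixation and Hoechst stain, giving EC50. Cells: HeLa transiently expressing hAG-mTOR and Ash-FKBP12, exposed to compound concentrations for 1 h at 37 °C.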

[2] = Cytotoxicity assay (CellTiter-Glo, 72 h), SKOV-3; assay type: cell-based, human; conditions: human, raw replicate data, read-out: SKOV3 viability (%)
Summary of the method: (§1)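 Incubate 4 h at 37 °C, 5% CO2. Add 2-fold compound dilutions, 0.5% DMSO. After 72 h, read CellTiter-Glo luminescence.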

[3] = system: human ovarian adenocarcinoma SKOV-3 cells; assay: Cytotoxicity assay (CellTiter-Glo, 72 h), SKOV-3; assay type: cell-based; conditions: raw replicate data
Summary of the method: as §1

[4] = Cytotoxicity assay (CellTiter-Glo, 72 h), MESO-1; assay type: cell-based; conditions: human, MESO-1 malignant pleural mesothelioma cells, raw replicate data, read-out: MESO1 viability (%)
Summary of the method: as §1

[5] = system: malignant pleural mesothelioma MESO-1 cells; assay: Cytotoxicity assay (CellTiter-Glo, 72 h), MESO-1; assay type: cell-based; conditions: raw replicate data
Summary of the method: as §1

[6] = system: Jurkat, SKOV-3 and MESO-1 cells; assay: Cytotoxicity assay, statements for all tested cell lines together; assay type: cell-based; conditions: against the tested cell lines (Jurkat, SKOV-3, MESO-1)
Summary of the method: as §1

SMILES: CO[C@H]1C[C@@H]2CC[C@@H](C)[C@@](O)(O2)C(=O)C(=O)N2CCCC[C@H]2C(=O)O[C@H]([C@H](C)C[C@@H]2CC[C@@H](O)[C@H](OC)C2)CC(=O)[C@H](C)/C=C(\C)[C@@H](O)CC(=O)[C@H](C)C[C@H](C)/C=C/C=C(C)/C=C/1C [Compound 2, 27-demethoxy-19-methyl rapamycin]
- PPI-inducing (binding enhancing) activity between FKBP12 and mTOR compared with rapamycin (1), in words ([1]; Fluoppi): relatively weaker activities
- EC50 ([1]; Fluoppi, HeLa cells, 1 h treatment, three independent biological replicates, read-out: EC50, induction of the formation of FKBP-mTOR complex): 45 nM
- Foci intensity ([1]; conc 9.53674e-5 uM): 0.02068 and 0.01364 and 0.008639
- Foci intensity ([1]; conc 0.000190735 uM): 0.01744 and 0.007135 and 0.0155
- Foci intensity ([1]; conc 0.00038147 uM): 0.04148 and 0.01907 and 0.0147
- Foci intensity ([1]; conc 0.000762939 uM): 0.01977 and 0.01076 and 0.01197
- Foci intensity ([1]; conc 0.00152588 uM): 0.06388 and 0.02909 and 0.00714
- Foci intensity ([1]; conc 0.00305176 uM): 0.01847 and 0.0327 and 0.01128
- Foci intensity ([1]; conc 0.00610352 uM): 0.01966 and 0.01473 and 0.01204
- Foci intensity ([1]; conc 0.012207 uM): 0.01622 and 0.03454 and 0.02495
- Foci intensity ([1]; conc 0.0244141 uM): 0.05679 and 0.05606 and 0.04583
- Foci intensity ([1]; conc 0.0488281 uM): 0.1221 and 0.237 and 0.2378
- Foci intensity ([1]; conc 0.0976562 uM): 0.306 and 0.2748 and 0.2045
- Foci intensity ([1]; conc 0.195312 uM): 0.3211 and 0.3269 and 0.2723
- Foci intensity ([1]; conc 0.390625 uM): 0.3599 and 0.2761 and 0.3358
- Foci intensity ([1]; conc 0.78125 uM): 0.3175 and 0.3752 and 0.289
- Foci intensity ([1]; conc 1.5625 uM): 0.3697 and 0.3114 and 0.3338
- Foci intensity ([1]; conc 3.125 uM): 0.3541 and 0.2997 and 0.3309
- Foci intensity ([1]; conc 6.25 uM): 0.3255 and 0.2796 and 0.2953
- Foci intensity ([1]; conc 12.5 uM): 0.3157 and 0.354 and 0.2564
- Foci intensity ([1]; conc 25 uM): 0.3263 and 0.3214 and 0.3499
- Foci intensity ([1]; conc 50 uM): 0.3058 and 0.2791 and 0.2528
- viability at 72 h, 9.53674e-05 uM ([2]; SKOV-3 cells (ovarian adenocarcinoma), conc 9.53674e-5 uM): 94.7%
- viability at 72 h, 0.000190735 uM ([2]; SKOV-3 cells (ovarian adenocarcinoma), conc 0.000190735 uM): 95.8%
- viability at 72 h, 0.00038147 uM ([2]; SKOV-3 cells (ovarian adenocarcinoma), conc 0.00038147 uM): 97.8%
- viability at 72 h, 0.000762939 uM ([2]; SKOV-3 cells (ovarian adenocarcinoma), conc 0.000762939 uM): 98.5%
- viability at 72 h, 0.00152588 uM ([2]; SKOV-3 cells (ovarian adenocarcinoma), conc 0.00152588 uM): 106%
- viability at 72 h, 0.00305176 uM ([2]; SKOV-3 cells (ovarian adenocarcinoma), conc 0.00305176 uM): 97%
- viability at 72 h, 0.00610352 uM ([2]; SKOV-3 cells (ovarian adenocarcinoma), conc 0.00610352 uM): 105%
- viability at 72 h, 0.012207 uM ([2]; SKOV-3 cells (ovarian adenocarcinoma), conc 0.012207 uM): 90.8%
- viability at 72 h, 0.0244141 uM ([2]; SKOV-3 cells (ovarian adenocarcinoma), conc 0.0244141 uM): 96.5%
- viability at 72 h, 0.0488281 uM ([2]; SKOV-3 cells (ovarian adenocarcinoma), conc 0.0488281 uM): 96.1%
- viability at 72 h, 0.0976562 uM ([2]; SKOV-3 cells (ovarian adenocarcinoma), conc 0.0976562 uM): 97.7%
- viability at 72 h, 0.195312 uM ([2]; SKOV-3 cells (ovarian adenocarcinoma), conc 0.195312 uM): 97.9%
- viability at 72 h, 0.390625 uM ([2]; SKOV-3 cells (ovarian adenocarcinoma), conc 0.390625 uM): 98.8%
- viability at 72 h, 12.5 uM ([2]; SKOV-3 cells (ovarian adenocarcinoma), conc 12.5 uM): 91.2%
- viability at 72 h, 25 uM ([2]; SKOV-3 cells (ovarian adenocarcinoma), conc 25 uM): 100%
- viability at 72 h, 50 uM ([2]; SKOV-3 cells (ovarian adenocarcinoma), conc 50 uM): 20.5%
- viability at 72 h, 0.78125 uM ([2]; SKOV-3 ovarian adenocarcinoma cells, conc 0.78125 uM): 93.9%
- viability at 72 h, 1.5625 uM ([2]; SKOV-3 ovarian adenocarcinoma cells, conc 1.5625 uM): 95.7%
- viability at 72 h, 3.125 uM ([2]; SKOV-3 ovarian adenocarcinoma cells, conc 3.125 uM): 102%
- viability at 72 h, 6.25 uM ([2]; SKOV-3 ovarian adenocarcinoma cells, conc 6.25 uM): 102%
- SKOV3 viability (%) ([3]; conc 9.53674e-5 uM): 102.9% and 98.3%
- SKOV3 viability (%) ([3]; conc 0.000190735 uM): 104.0% and 97.1%
- SKOV3 viability (%) ([3]; conc 0.00038147 uM): 97.2% and 104.3%
- SKOV3 viability (%) ([3]; conc 0.000762939 uM): 101.6% and 95.9%
- SKOV3 viability (%) ([3]; conc 0.00152588 uM): 101.4% and 101.1%
- SKOV3 viability (%) ([3]; conc 0.00305176 uM): 96.6% and 99.8%
- SKOV3 viability (%) ([3]; conc 0.00610352 uM): 102.9% and 97.3%
- SKOV3 viability (%) ([3]; conc 0.012207 uM): 93.7%
- SKOV3 viability (%) ([3]; conc 0.0244141 uM): 96.2% and 94.8%
- SKOV3 viability (%) ([3]; conc 0.0488281 uM): 100.2% and 102.5%
- SKOV3 viability (%) ([3]; conc 0.0976562 uM): 99.8% and 96.7%
- SKOV3 viability (%) ([3]; conc 0.195312 uM): 94.3% and 95.1%
- SKOV3 viability (%) ([3]; conc 0.390625 uM): 99.5% and 95.3%
- SKOV3 viability (%) ([3]; conc 0.78125 uM): 97.2%
- SKOV3 viability (%) ([3]; conc 1.5625 uM): 98.7% and 99.8%
- SKOV3 viability (%) ([3]; conc 3.125 uM): 98.6% and 90.6%
- SKOV3 viability (%) ([3]; conc 6.25 uM): 97.2% and 96.7%
- SKOV3 viability (%) ([3]; conc 12.5 uM): 95.5% and 90.7%
- SKOV3 viability (%) ([3]; conc 25 uM): 97.5%
- SKOV3 viability (%) ([3]; conc 50 uM): 21.5% and 18.1%
- viability at 72 h, 9.53674e-05 uM ([4]; conc 9.53674e-5 uM): 101%
- viability at 72 h, 0.000190735 uM ([4]; conc 0.000190735 uM): 97.4%
- viability at 72 h, 0.00038147 uM ([4]; conc 0.00038147 uM): 96%
- viability at 72 h, 0.000762939 uM ([4]; conc 0.000762939 uM): 100%
- viability at 72 h, 0.00152588 uM ([4]; conc 0.00152588 uM): 97%
- viability at 72 h, 0.00305176 uM ([4]; conc 0.00305176 uM): 104%
- viability at 72 h, 0.00610352 uM ([4]; conc 0.00610352 uM): 105%
- viability at 72 h, 0.012207 uM ([4]; conc 0.012207 uM): 103%
- viability at 72 h, 0.0244141 uM ([4]; conc 0.0244141 uM): 103%
- viability at 72 h, 0.0488281 uM ([4]; conc 0.0488281 uM): 102%
- viability at 72 h, 0.0976562 uM ([4]; conc 0.0976562 uM): 107%
- viability at 72 h, 0.195312 uM ([4]; conc 0.195312 uM): 103%
- viability at 72 h, 0.390625 uM ([4]; conc 0.390625 uM): 109%
- viability at 72 h, 0.78125 uM ([4]; conc 0.78125 uM): 93.3%
- viability at 72 h, 1.5625 uM ([4]; conc 1.5625 uM): 99.9%
- viability at 72 h, 3.125 uM ([4]; conc 3.125 uM): 97.7%
- viability at 72 h, 6.25 uM ([4]; conc 6.25 uM): 97.3%
- viability at 72 h, 12.5 uM ([4]; conc 12.5 uM): 98%
- viability at 72 h, 25 uM ([4]; conc 25 uM): 84%
- viability at 72 h, 50 uM ([4]; conc 50 uM): 2.4%
- MESO1 viability (%) ([5]; conc 9.53674e-5 uM): 104.9%
- MESO1 viability (%) ([5]; conc 0.000190735 uM): 103.1% and 96.1%
- MESO1 viability (%) ([5]; conc 0.00038147 uM): 98.5% and 98.1%
- MESO1 viability (%) ([5]; conc 0.000762939 uM): 110.7% and 97.2%
- MESO1 viability (%) ([5]; conc 0.00152588 uM): 108.1% and 104.8%
- MESO1 viability (%) ([5]; conc 0.00305176 uM): 97.8% and 100.1%
- MESO1 viability (%) ([5]; conc 0.00610352 uM): 108.3% and 98.8%
- MESO1 viability (%) ([5]; conc 0.012207 uM): 101.9% and 99.1%
- MESO1 viability (%) ([5]; conc 0.0244141 uM): 104.7% and 100.7%
- MESO1 viability (%) ([5]; conc 0.0488281 uM): 104.5% and 103.1%
- MESO1 viability (%) ([5]; conc 0.0976562 uM): 98.7% and 102.0%
- MESO1 viability (%) ([5]; conc 0.195312 uM): 104.9% and 106.8%
- MESO1 viability (%) ([5]; conc 0.390625 uM): 97.6% and 96.8%
- MESO1 viability (%) ([5]; conc 0.78125 uM): 95.1% and 98.4%
- MESO1 viability (%) ([5]; conc 1.5625 uM): 99.0% and 101.9%
- MESO1 viability (%) ([5]; conc 3.125 uM): 94.6% and 96.8%
- MESO1 viability (%) ([5]; conc 6.25 uM): 96.9% and 103.3%
- MESO1 viability (%) ([5]; conc 12.5 uM): 98.9% and 92.4%
- MESO1 viability (%) ([5]; conc 25 uM): 86.3% and 80.9%
- MESO1 viability (%) ([5]; conc 50 uM): 1.2% and 1.3%
- Concentration at which cytotoxic activities were shown [6]: over 10 µM
